Experimental data taken from patent US11000033B2, “Ketone or oxime compound, and herbicide” (NISSAN CHEMICAL CORPORATION, priority 2014, dated 2021).

Columns and labels:
Type in all cases: in vivo
Lolium multiflorum Lam. = assay: Test Example 4: herbicidal effect by soil treatment (symbol K)
In short: (§1)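 Seeds were sown in sterilized diluvial soil, covered with about 1.5 cm of soil, and the soil surface was sprayed with a water-diluted emulsion of the compound at a predetermined rate. Plants grew in a greenhouse at 25° C. to 30° C.; effects were scored visually 3 weeks after application.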

rapeseed = assay: Test Example 4: effect on crop by soil treatment (symbol g); settings: for g: rapeseed, effect grade on crop: 320 g/ha; for g: rapeseed, effect on crop grade: application herbicide amount 320 g/ha
In short: (§2)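 Plants are raised in a greenhouse (25° C. to 30° C.) from spot-sown seed, which sits under about 1.5 cm of sterilized diluvial soil in a box shared with weed species.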

soybean = assay: Test Example 4: effect on crop by soil treatment (symbol d); settings: for d: soybean, effect grade on crop: 320 g/ha; for d: soybean, effect on crop grade: application herbicide amount 320 g/ha
In short: as §2

corn = assay: Test Example 4: effect on crop by soil treatment (symbol c); settings: for c: corn, effect grade on crop: 320 g/ha; for c: corn, effect on crop grade: application herbicide amount 320 g/ha
In short: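 Crop seed is sown in spots together with several weed species in a box of sterilized diluvial soil. It is covered by about 1.5 cm of soil and kept in a greenhouse held between 25° C. and 30° C.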

Stellaria media = assay: Test Example 5: herbicidal effect by foliage application, plastic box (symbol P); settings: 320 g/ha, 3 weeks after application
In short: (§3)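 Emulsion formulation, diluted with water to the intended rate, was applied uniformly to leaves by small sprayer. Recipients were 14-day greenhouse-grown seedlings (25° C. to 30° C.). Assessment followed at 3 weeks.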

wheat = assay: Test Example 5: effect on crop by foliage application, plastic box (symbol e); settings: 320 g/ha, 3 weeks after application
In short: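 Greenhouse test at 25° C. to 30° C. Seeds of crops and weeds were spot-sown in boxes of sterilized diluvial soil under roughly 1.5 cm soil cover, then grown for foliage treatment.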

[1] = system: Echinochloa oryzacola Vasing.; assay: Test Example 2: herbicidal activity, application during weed generation in submerged conditions (symbol A); settings: Table 23; application herbicide amount 320 g/ha; grade 0-5 by criteria of Test Example 1
In short: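 Scoring of herbicidal effect took place 3 weeks after treatment, using the criteria of the earlier test. Treatment was water-surface application of diluted emulsifiable compound at a set dose. Plants were at one- to two-leaf stage in submerged alluvial soil (4 cm depth), greenhouse 25-30° C.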

Avena fatua = assay: Test Example 5: herbicidal effect by foliage application, plastic box (symbol I); settings: 320 g/ha, 3 weeks after application
In short: as §3

[2] = system: directly sowed rice plant; assay: Test Example 3: effect on crop by foliage application, Wagner pot (symbol b); settings: application herbicide amount 320 g/ha
In short: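 Steps: fill a 1/10000-are Wagner pot with alluvial soil; add water and mix to submerge at 0.1–0.5 cm depth; sow rice plus Echinochloa crus-galli var. crus-galli, Leptochloa chinensis and Cyperus difformis; grow in a 25–30 °C greenhouse.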

Setaria viridis = assay: Test Example 4: herbicidal effect by soil treatment (symbol G)
In short: as §1

[3] = system: Echinochloa crus-galli var. crus-galli; assay: Test Example 3: herbicidal effect by foliage application, Wagner pot (symbol H); settings: application herbicide amount 320 g/ha
In short: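 Foliar spray of a water-diluted emulsion at a predetermined herbicide amount, applied to 14-day-old plants. Seedlings were raised in flooded alluvial soil (0.1–0.5 cm water) at 25–30 °C in a greenhouse. Injury was rated after 3 weeks against fixed criteria.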

[4] = application herbicide amount 320 g/ha

CON=C(C)CC1CC(OS(=O)(=O)c2ccc(C)cc2)=C(c2c(C)cc(C)cc2C)C1=O (centres unmarked) [1-161]
K: Lolium multiflorum Lam., herbicidal effect grade (Lolium multiflorum Lam.; 320 g/ha): 3 (Herbicidal ratio of 40% or higher and lower than 70%)
g: rapeseed, effect grade on crop (rapeseed): 2 (Herbicidal ratio of 20% or higher and lower than 40%)
d: soybean, effect grade on crop (soybean): 0 (Herbicidal ratio of 5% or lower (almost no effect))
c: corn, effect grade on crop (corn): 0 (Herbicidal ratio of 5% or lower (almost no effect))
P: Stellaria media, herbicidal effect grade (Stellaria media): 0 (Herbicidal ratio of 5% or lower (almost no effect))
e: wheat, effect on crop grade (wheat): 2 (Herbicidal ratio of 20% or higher and lower than 40%)
Herbicidal effect grade, A: Echinochloa oryzacola Vasing. [1]: 5 (Herbicidal ratio of 90% or more (almost completely withered))
I: Avena fatua, herbicidal effect grade (Avena fatua): 4 (Herbicidal ratio of 70% or higher and lower than 90%)
effect on crop b (directly sowed rice plant), grade 0-5 [2]: 5 (Herbicidal ratio of 90% or more (almost completely withered))
G: Setaria viridis, herbicidal effect grade (Setaria viridis; 320 g/ha): 0 (Herbicidal ratio of 5% or lower (almost no effect))
herbicidal effect on H (Echinochloa crus-galli var. crus-galli), grade 0-5 [3]: 4 (Herbicidal ratio of 70% or higher and lower than 90%)

CON=C(C)CC1CC(OC(=O)c2ccc(S(C)(=O)=O)c(C(=O)OC)c2Cl)=C(c2c(C)cc(C)cc2C)C1=O (centres unmarked) [1-162]
K: Lolium multiflorum Lam., herbicidal effect grade (Lolium multiflorum Lam.; 320 g/ha): 5 (Herbicidal ratio of 90% or more (almost completely withered))
g: rapeseed, effect grade on crop (rapeseed): 4 (Herbicidal ratio of 70% or higher and lower than 90%)
d: soybean, effect grade on crop (soybean): 0 (Herbicidal ratio of 5% or lower (almost no effect))
c: corn, effect grade on crop (corn): 2 (Herbicidal ratio of 20% or higher and lower than 40%)
P: Stellaria media, herbicidal effect grade (Stellaria media): 4 (Herbicidal ratio of 70% or higher and lower than 90%)
e: wheat, effect on crop grade (wheat): 5 (Herbicidal ratio of 90% or more (almost completely withered))
Herbicidal effect grade, A: Echinochloa oryzacola Vasing. [1]: 5 (Herbicidal ratio of 90% or more (almost completely withered))
I: Avena fatua, herbicidal effect grade (Avena fatua): 5 (Herbicidal ratio of 90% or more (almost completely withered))
effect on crop b (directly sowed rice plant), grade 0-5 [2]: 5 (Herbicidal ratio of 90% or more (almost completely withered))
G: Setaria viridis, herbicidal effect grade (Setaria viridis; 320 g/ha): 5 (Herbicidal ratio of 90% or more (almost completely withered))
herbicidal effect on H (Echinochloa crus-galli var. crus-galli), grade 0-5 [3]: 5 (Herbicidal ratio of 90% or more (almost completely withered))

CC(=O)C(C(C)=O)C1CC(O)=C(c2c(C)cc(C)cc2C)C1=O (centres unmarked) [2-002]
K: Lolium multiflorum Lam., herbicidal effect grade (Lolium multiflorum Lam.; 320 g/ha): 0 (Herbicidal ratio of 5% or lower (almost no effect))
g: rapeseed, effect grade on crop (rapeseed): 0 (Herbicidal ratio of 5% or lower (almost no effect))
d: soybean, effect grade on crop (soybean): 0 (Herbicidal ratio of 5% or lower (almost no effect))
c: corn, effect grade on crop (corn): 0 (Herbicidal ratio of 5% or lower (almost no effect))
P: Stellaria media, herbicidal effect grade (Stellaria media): 2 (Herbicidal ratio of 20% or higher and lower than 40%)
e: wheat, effect on crop grade (wheat): 0 (Herbicidal ratio of 5% or lower (almost no effect))
Herbicidal effect grade, A: Echinochloa oryzacola Vasing. [1]: 0 (Herbicidal ratio of 5% or lower (almost no effect))
I: Avena fatua, herbicidal effect grade (Avena fatua): 1 (Herbicidal ratio of 5% or higher and lower than 20%)
effect on crop b (directly sowed rice plant), grade 0-5 [2]: 0 (Herbicidal ratio of 5% or lower (almost no effect))
G: Setaria viridis, herbicidal effect grade (Setaria viridis; 320 g/ha): 0 (Herbicidal ratio of 5% or lower (almost no effect))
herbicidal effect on H (Echinochloa crus-galli var. crus-galli), grade 0-5 [3]: 0 (Herbicidal ratio of 5% or lower (almost no effect))

COC(=O)C(C(C)=O)C1CC(O)=C(c2c(C)cc(C)cc2C)C1=O (centres unmarked) [2-003]
K: Lolium multiflorum Lam., herbicidal effect grade (Lolium multiflorum Lam.; 320 g/ha): 5 (Herbicidal ratio of 90% or more (almost completely withered))
g: rapeseed, effect grade on crop (rapeseed): 0 (Herbicidal ratio of 5% or lower (almost no effect))
d: soybean, effect grade on crop (soybean): 0 (Herbicidal ratio of 5% or lower (almost no effect))
c: corn, effect grade on crop (corn): 0 (Herbicidal ratio of 5% or lower (almost no effect))
P: Stellaria media, herbicidal effect grade (Stellaria media): 0 (Herbicidal ratio of 5% or lower (almost no effect))
e: wheat, effect on crop grade (wheat): 0 (Herbicidal ratio of 5% or lower (almost no effect))
Herbicidal effect grade, A: Echinochloa oryzacola Vasing. [1]: 0 (Herbicidal ratio of 5% or lower (almost no effect))
I: Avena fatua, herbicidal effect grade (Avena fatua): 5 (Herbicidal ratio of 90% or more (almost completely withered))
effect on crop b (directly sowed rice plant), grade 0-5 [2]: 4 (Herbicidal ratio of 70% or higher and lower than 90%)
G: Setaria viridis, herbicidal effect grade (Setaria viridis; 320 g/ha): 0 (Herbicidal ratio of 5% or lower (almost no effect))
herbicidal effect on H (Echinochloa crus-galli var. crus-galli), grade 0-5 [3]: 5 (Herbicidal ratio of 90% or more (almost completely withered))

CCC(=O)CC1CC(O)=C(c2c(C)cc(C)cc2C)C1=O (centres unmarked) [2-006]
K: Lolium multiflorum Lam., herbicidal effect grade (Lolium multiflorum Lam.; [4]): 5 (Herbicidal ratio of 90% or more (almost completely withered))
g: rapeseed, effect on crop grade (rapeseed): 4 (Herbicidal ratio of 70% or higher and lower than 90%)
d: soybean, effect on crop grade (soybean): 0 (Herbicidal ratio of 5% or lower (almost no effect))
c: corn, effect on crop grade (corn): 2 (Herbicidal ratio of 20% or higher and lower than 40%)
P: Stellaria media, herbicidal effect grade (Stellaria media): 0 (Herbicidal ratio of 5% or lower (almost no effect))
e: wheat, effect on crop grade (wheat): 0 (Herbicidal ratio of 5% or lower (almost no effect))
Herbicidal effect grade, A: Echinochloa oryzacola Vasing. [1]: 5 (Herbicidal ratio of 90% or more (almost completely withered))
I: Avena fatua, herbicidal effect grade (Avena fatua): 3 (Herbicidal ratio of 40% or higher and lower than 70%)
effect on crop b (directly sowed rice plant), grade 0-5 [2]: 5 (Herbicidal ratio of 90% or more (almost completely withered))
G: Setaria viridis, herbicidal effect grade (Setaria viridis; [4]): 5 (Herbicidal ratio of 90% or more (almost completely withered))
herbicidal effect on H (Echinochloa crus-galli var. crus-galli), grade 0-5 [3]: 5 (Herbicidal ratio of 90% or more (almost completely withered))

COCC(=O)CC1CC(O)=C(c2c(C)cc(C)cc2C)C1=O (centres unmarked) [2-007]
K: Lolium multiflorum Lam., herbicidal effect grade (Lolium multiflorum Lam.; [4]): 5 (Herbicidal ratio of 90% or more (almost completely withered))
g: rapeseed, effect on crop grade (rapeseed): 4 (Herbicidal ratio of 70% or higher and lower than 90%)
d: soybean, effect on crop grade (soybean): 0 (Herbicidal ratio of 5% or lower (almost no effect))
c: corn, effect on crop grade (corn): 0 (Herbicidal ratio of 5% or lower (almost no effect))
P: Stellaria media, herbicidal effect grade (Stellaria media): 2 (Herbicidal ratio of 20% or higher and lower than 40%)
e: wheat, effect on crop grade (wheat): 0 (Herbicidal ratio of 5% or lower (almost no effect))
Herbicidal effect grade, A: Echinochloa oryzacola Vasing. [1]: 3 (Herbicidal ratio of 40% or higher and lower than 70%)
I: Avena fatua, herbicidal effect grade (Avena fatua): 0 (Herbicidal ratio of 5% or lower (almost no effect))
effect on crop b (directly sowed rice plant), grade 0-5 [2]: 5 (Herbicidal ratio of 90% or more (almost completely withered))
G: Setaria viridis, herbicidal effect grade (Setaria viridis; [4]): 4 (Herbicidal ratio of 70% or higher and lower than 90%)
herbicidal effect on H (Echinochloa crus-galli var. crus-galli), grade 0-5 [3]: 5 (Herbicidal ratio of 90% or more (almost completely withered))

CCOC(=O)C(C(=O)c1ccccc1)C1CC(O)=C(c2c(C)cc(C)cc2C)C1=O (centres unmarked) [2-008]
K: Lolium multiflorum Lam., herbicidal effect grade (Lolium multiflorum Lam.; [4]): 3 (Herbicidal ratio of 40% or higher and lower than 70%)
g: rapeseed, effect on crop grade (rapeseed): 0 (Herbicidal ratio of 5% or lower (almost no effect))
d: soybean, effect on crop grade (soybean): 0 (Herbicidal ratio of 5% or lower (almost no effect))
c: corn, effect on crop grade (corn): 0 (Herbicidal ratio of 5% or lower (almost no effect))
P: Stellaria media, herbicidal effect grade (Stellaria media): 0 (Herbicidal ratio of 5% or lower (almost no effect))
e: wheat, effect on crop grade (wheat): 0 (Herbicidal ratio of 5% or lower (almost no effect))
Herbicidal effect grade, A: Echinochloa oryzacola Vasing. [1]: 0 (Herbicidal ratio of 5% or lower (almost no effect))
I: Avena fatua, herbicidal effect grade (Avena fatua): 0 (Herbicidal ratio of 5% or lower (almost no effect))
effect on crop b (directly sowed rice plant), grade 0-5 [2]: 0 (Herbicidal ratio of 5% or lower (almost no effect))
G: Setaria viridis, herbicidal effect grade (Setaria viridis; [4]): 0 (Herbicidal ratio of 5% or lower (almost no effect))
herbicidal effect on H (Echinochloa crus-galli var. crus-galli), grade 0-5 [3]: 0 (Herbicidal ratio of 5% or lower (almost no effect))
